Data: PMC5967867, “An NMDAR positive and negative allosteric modulator series share a binding site and are interconverted by methyl groups” (eLife, 2018)
Several values for one entry are separate records, joined by “and”; a condition that tells them apart may be missing. Identical values can stand only once.

Experiments:
[1] = biological target: GluN1/GluN2D NMDARs (Rattus norvegicus, UniProt P35439+Q62645); experiment: Whole cell patch-clamp recordings, HEK293 cells expressing GluN1/GluN2D; assay type: cell-based; settings: for kon / koff: HEK293; for kon: read-out: association rate kon; for koff: read-out: dissociation rate koff; for Kd: calculated from association and dissociation rates, HEK cells, read-out: kinetically-determined affinity constant Kd
Procedure: We studied NMDARs expressed in HEK293 cells to investigate the time course of modulator action. […] These modulators were tested on GluN1/GluN2A and GluN1/GluN2D to see whether there were differences in modulation given the distinct properties of these NMDAR subtypes. […] The time-course of modulator binding of EU1794-2, EU1794-4 and EU1794-27 was also determined for GluN1/GluN2A (Figure 4C,D).
(§1) cDNAs for rat wild type NMDAR subunits GluN1-1a (GenBank U11418, U08261; hereafter GluN1 or GluN1a), GluN1-1b (U08263, hereafter GluN1b), GluN2A (D13211), GluN2B (U11419), GluN2C (M91563), and GluN2D (L31611, modified as described in [Monyer et al., 1994]) were provided by Drs. S. Heinemann (Salk Institute), S. Nakanishi (Kyoto University), and P. Seeburg (University of Heidelberg). Site-directed mutagenesis was conducted using the QuikChange kit (Agilent Technologies, Santa Clara, CA) following the recommended protocol. DNA sequencing was used to verify all mutations. The amino acid numbering system started with the initiating methionine as residue number one. For expression in Xenopus laevis oocytes, cDNA constructs were linearized by restriction enzymes, and subsequently used to synthesize in vitro cRNAs following the manufacturer’s protocol (mMessage mMachine, Ambion, ThermoFisher Scientific, Waltham, MA).
(§2) HEK293 cells (CRL-1573, ATCC, Manassas, VA) were maintained in a tissue culture room solely reserved for their culturing and transfected using a CaPO4 protocol to express the diheteromeric NMDARs as previously described ([Hansen et al., 2013]). Cell lines were obtained directly from the supplier, were expanded, frozen and kept in liquid nitrogen in a dewar. Mycoplasma testing was not performed. cDNA ratios for transfection were 1:1:1 (GluN2D) or 1:1:5 (GluN2A) for GluN1:GluN2:GFP.

[2] = biological target: GluN1/GluN2A NMDARs (Rattus norvegicus, UniProt P35439+Q00959); experiment: Whole cell patch-clamp recordings, HEK293 cells expressing GluN1/GluN2A; assay type: cell-based; settings: for modulation of high desensitized steady state responses / modulation of low desensitized steady state responses (drug/control): 10 µM, 100/30 µM glutamate/glycine; for modulation of high desensitized steady state responses / modulation of low desensitized steady state responses (drug/control) / Kd: HEK cells; for kon / koff: HEK293; for kon: read-out: association rate kon; for koff: read-out: dissociation rate koff; for Kd: calculated from association and dissociation rates, read-out: kinetically-determined affinity constant Kd
Procedure: We studied NMDARs expressed in HEK293 cells to investigate the time course of modulator action. […] These modulators were tested on GluN1/GluN2A and GluN1/GluN2D to see whether there were differences in modulation given the distinct properties of these NMDAR subtypes. […] From these we calculated the kinetically-determined affinity constant (Kd), which we found to be similar to the EC50 values determined from concentration-response experiments. […] Complex actions of EU1794-4 and EU1794-27 were observed, with two temporally-distinct phases of modulation evident for the association of these modulators (Figure 4A). Both compounds produced a rapid inhibition followed by a slowly developing potentiating phase for EU1794-27. The rapid association rate determined during the rapid inhibition produced by EU1794-4 was approximately three times faster than EU1794-2; similarly, the dissociation rate was also faster for EU1794-4 than EU1794-2. Quantitative analysis of the slower phases was challenging due to its lower signal-to-noise ratio. Likewise, the rapid inhibitory phase was also difficult to measure for EU1794-27 because its rapid time course was convolved with the potentiation time course. Additionally, the depotentiation time course is preceded by a transient enhancement of the current response, followed by a relaxation to the pre-modulation level. The time course for potentiation and depotentiation were best fit with an exponential function summed with an additional linear component after the rapid phase subsided. […] All modulatory effects were independent of voltage (Figure 4—figure supplement 1A). The steady state modulator responses from HEK293 cells approximately match the concentration-response relationship determined from TEVC recordings from X. laevis oocytes (Figure 4A, inset graphs). The time-course of modulator binding of EU1794-2, EU1794-4 and EU1794-27 was also determined for GluN1/GluN2A (Figure 4C,D). Higher Kd values (lower potency) were determined for each molecule at GluN1/GluN2A as compared to GluN1/GluN2D that parallel EC50 values determined using X. laevis oocytes. Similar to oocyte data, robust inhibition was produced by EU1794-2, modest inhibition was produced by EU1794-4, and transient inhibition and recovery was observed by the application of EU1794-27. […] The low desensitized group (40% average desensitization) was modulated by 107%, whereas the high desensitized group (10% average desensitization) was modulated to 247% of control by 10 µM EU1794-27 (Figure 4C and Figure 4—figure supplement 1F).
as §1
as §2, with “GluN1:GluN2:GFP. […]” for “GluN1:GluN2:GFP.”

[3] = concentration dependence of linear component of time course

Chain of GluN1/GluN2D NMDARs (Q62645 28-1323, other chains not shown): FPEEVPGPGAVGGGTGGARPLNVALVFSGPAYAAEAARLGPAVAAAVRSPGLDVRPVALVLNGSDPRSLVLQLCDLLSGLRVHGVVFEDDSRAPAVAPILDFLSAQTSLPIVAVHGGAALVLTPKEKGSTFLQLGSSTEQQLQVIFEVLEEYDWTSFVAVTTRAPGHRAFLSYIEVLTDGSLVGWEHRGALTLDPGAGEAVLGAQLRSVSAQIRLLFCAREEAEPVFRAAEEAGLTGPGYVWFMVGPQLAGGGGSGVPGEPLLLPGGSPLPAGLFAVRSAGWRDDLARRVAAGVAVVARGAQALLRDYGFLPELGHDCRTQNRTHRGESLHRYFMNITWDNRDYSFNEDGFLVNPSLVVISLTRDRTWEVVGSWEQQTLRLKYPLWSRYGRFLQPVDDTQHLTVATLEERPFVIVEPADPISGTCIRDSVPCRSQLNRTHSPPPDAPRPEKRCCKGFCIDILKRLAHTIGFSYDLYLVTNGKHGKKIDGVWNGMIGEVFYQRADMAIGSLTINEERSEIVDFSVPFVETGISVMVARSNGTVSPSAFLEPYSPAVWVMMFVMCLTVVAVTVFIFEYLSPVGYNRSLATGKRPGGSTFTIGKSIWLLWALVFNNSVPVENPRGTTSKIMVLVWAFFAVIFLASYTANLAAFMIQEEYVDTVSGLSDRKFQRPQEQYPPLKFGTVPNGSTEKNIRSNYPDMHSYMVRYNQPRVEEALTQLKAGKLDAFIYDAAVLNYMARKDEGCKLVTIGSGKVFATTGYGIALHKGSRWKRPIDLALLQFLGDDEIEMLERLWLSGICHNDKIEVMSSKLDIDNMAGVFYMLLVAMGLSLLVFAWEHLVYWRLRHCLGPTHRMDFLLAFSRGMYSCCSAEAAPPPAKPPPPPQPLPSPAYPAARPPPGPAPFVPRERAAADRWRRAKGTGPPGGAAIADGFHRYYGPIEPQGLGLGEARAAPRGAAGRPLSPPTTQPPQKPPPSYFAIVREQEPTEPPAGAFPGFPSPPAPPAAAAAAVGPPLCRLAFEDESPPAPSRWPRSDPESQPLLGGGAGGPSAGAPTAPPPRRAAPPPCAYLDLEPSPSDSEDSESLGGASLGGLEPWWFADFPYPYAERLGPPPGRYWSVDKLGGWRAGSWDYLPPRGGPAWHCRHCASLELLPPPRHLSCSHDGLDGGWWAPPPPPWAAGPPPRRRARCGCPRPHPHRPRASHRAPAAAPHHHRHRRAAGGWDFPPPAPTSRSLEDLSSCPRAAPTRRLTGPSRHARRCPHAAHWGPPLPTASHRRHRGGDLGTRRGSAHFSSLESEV
Chain of GluN1/GluN2A NMDARs (Q00959 23-1464, other chains not shown): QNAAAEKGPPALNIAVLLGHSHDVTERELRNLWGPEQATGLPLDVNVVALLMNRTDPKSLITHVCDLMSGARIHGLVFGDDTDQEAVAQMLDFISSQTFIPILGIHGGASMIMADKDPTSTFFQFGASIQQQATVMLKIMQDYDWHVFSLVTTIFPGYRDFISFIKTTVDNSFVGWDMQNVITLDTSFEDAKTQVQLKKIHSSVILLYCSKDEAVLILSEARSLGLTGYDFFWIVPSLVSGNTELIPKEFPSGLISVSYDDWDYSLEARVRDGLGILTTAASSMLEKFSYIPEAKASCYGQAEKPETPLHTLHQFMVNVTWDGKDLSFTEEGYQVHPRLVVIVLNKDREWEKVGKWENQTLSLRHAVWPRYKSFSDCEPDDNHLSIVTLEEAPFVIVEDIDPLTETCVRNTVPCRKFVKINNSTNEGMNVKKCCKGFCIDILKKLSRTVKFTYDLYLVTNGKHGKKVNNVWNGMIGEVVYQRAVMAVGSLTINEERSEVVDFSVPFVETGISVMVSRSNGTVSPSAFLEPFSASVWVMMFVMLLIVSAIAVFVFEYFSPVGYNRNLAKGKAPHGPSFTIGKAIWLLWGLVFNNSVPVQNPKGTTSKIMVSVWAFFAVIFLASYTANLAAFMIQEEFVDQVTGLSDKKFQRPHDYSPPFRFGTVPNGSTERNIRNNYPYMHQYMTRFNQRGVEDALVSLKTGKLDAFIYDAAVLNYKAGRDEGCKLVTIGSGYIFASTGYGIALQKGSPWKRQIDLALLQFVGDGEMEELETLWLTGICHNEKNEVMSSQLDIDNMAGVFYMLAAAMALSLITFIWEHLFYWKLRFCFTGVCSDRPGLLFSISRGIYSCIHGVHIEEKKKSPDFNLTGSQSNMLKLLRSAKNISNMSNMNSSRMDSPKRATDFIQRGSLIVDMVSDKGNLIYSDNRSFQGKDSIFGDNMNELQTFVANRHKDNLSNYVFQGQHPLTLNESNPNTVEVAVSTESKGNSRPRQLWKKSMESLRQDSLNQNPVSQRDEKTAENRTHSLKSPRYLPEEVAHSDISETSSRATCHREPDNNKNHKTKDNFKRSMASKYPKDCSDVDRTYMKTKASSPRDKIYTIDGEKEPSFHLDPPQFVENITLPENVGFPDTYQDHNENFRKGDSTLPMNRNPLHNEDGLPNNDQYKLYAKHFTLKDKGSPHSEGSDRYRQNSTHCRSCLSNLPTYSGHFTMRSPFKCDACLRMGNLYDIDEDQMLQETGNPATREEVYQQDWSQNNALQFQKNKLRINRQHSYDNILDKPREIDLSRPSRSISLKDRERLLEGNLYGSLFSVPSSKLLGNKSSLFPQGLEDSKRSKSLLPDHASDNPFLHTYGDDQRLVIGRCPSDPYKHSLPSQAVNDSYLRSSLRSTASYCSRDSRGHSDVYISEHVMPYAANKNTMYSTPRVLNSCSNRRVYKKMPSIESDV

kon [1] | koff [1] | Kd [1] | kon [2] | koff [2] | Kd [2] | association linear component slope mon [1, 3] | dissociation linear component slope moff [1, 3] | association linear component slope mon [2, 3] | dissociation linear component slope moff [2, 3] | SMILES | modulation of high desensitized steady state responses [2] | modulation of low desensitized steady state responses (drug/control) [2]
430000 M⁻¹ s⁻¹ | 0.495 s⁻¹ | 1.1 µM and 1.14 µM | 390000 M⁻¹ s⁻¹ | 0.938 s⁻¹ | 2.41 µM |  |  |  |  | CCOC(=O)c1c(NC(=O)CC2SC(=N)NC2=O)sc2c1CCC(C)C2 (stereo not drawn) [EU1794-2, ethyl 2-(2-(2-imino-4-oxothiazolidin-5-yl)acetamido)-6-methyl-4,5,6,7-tetrahydrobenzo[b]thiophene-3-carboxylate] | 32 % of control | 13 % of control
1.12e+06 M⁻¹ s⁻¹ | 4.66 s⁻¹ | 4.2 µM and 4.16 µM | 502000 M⁻¹ s⁻¹ | 3.94 s⁻¹ | 7.85 µM |  |  |  |  | CCOC(=O)c1c(NC(=O)CC2SC(=N)NC2=O)sc2c1CCCC2 (stereo not drawn) [EU1794-4, ethyl 2-(2-(2-imino-4-oxothiazolidin-5-yl)acetamido)-4,5,6,7-tetrahydrobenzo[b]thiophene-3-carboxylate] |  | 47 % of control
187000 M⁻¹ s⁻¹ | 0.802 s⁻¹ | 4.3 µM | 59200 M⁻¹ s⁻¹ | 0.426 s⁻¹ | 7.2 µM | −0.98 pA/(ms*µM) | 0.62 pA/(ms*µM) | −0.33 pA/(s*µM) | 0.16 pA/(s*µM) | CC(C)(C)OC(=O)c1c(NC(=O)CC2SC(=N)NC2=O)sc2c1CCCC2 (stereo not drawn) [EU1794-27, tert-butyl 2-(2-(2-imino-4-oxothiazolidin-5-yl)acetamido)-4,5,6,7-tetrahydrobenzo[b]thiophene-3-carboxylate] | 247 % of control and 247 ± 31 % of control | 107 % of control and 107 ± 16 % of control
